Here are results for 34 compounds from patent US10995091B2 (Proximagen, LLC, priority 2010, dated 2021).

A value given as a limit tells only on which side of the number the result lay.

In this experiment the target is T1, Human CXCR4 transfected HEK293 cells (Homo sapiens, UniProt P61073).
T1 construct: expressed in transfected cells; host or cells: HEK293
T1 sequence (P61073 whole entry): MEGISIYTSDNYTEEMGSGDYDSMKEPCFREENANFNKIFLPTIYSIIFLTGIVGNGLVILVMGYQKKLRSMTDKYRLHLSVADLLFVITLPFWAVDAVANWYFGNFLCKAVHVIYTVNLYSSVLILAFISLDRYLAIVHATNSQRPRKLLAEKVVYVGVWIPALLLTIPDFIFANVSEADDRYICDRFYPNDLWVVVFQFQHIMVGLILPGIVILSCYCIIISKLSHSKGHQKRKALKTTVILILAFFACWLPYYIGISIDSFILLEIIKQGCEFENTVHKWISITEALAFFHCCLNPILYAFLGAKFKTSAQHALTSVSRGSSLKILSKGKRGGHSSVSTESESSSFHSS
Briefly: CXCR4 functional calcium assay (calcium flux FLIPR, antagonism of SDF1 response). It is filed as cell-based. To be noted: CXCR4 functional activity, antagonism of SDF1 (EC50 concentration), read-out: CXCR4 fKi. In short, it runs like this: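 Dose-dependent antagonism of the SDF1 response was read by FLIPR as Fluo-4 calcium signal (2 μM dye) in CXCR4-expressing human HEK293 cells, in HBSS with probenecid, BSA and HEPES at pH 7.4 and 37° C. Test compound was given before an EC50-level SDF1 challenge. Curves were then fitted.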
On the technique in general: Calcium flux is commonly read through the fluorescence of an indicator in the cells.
Consider `COc1ccc2cc(-c3cccc(N4CCCN(C5CCN(C(C)C)CC5)CC4)n3)[nH]c2c1` [Example 104, 6-Methoxy-2-(6-{4-[1-(propan-2-yl)piperidin-4-yl]-1,4-diazepan-1-yl}pyridine-2-yl)-1H-indole], for which the Ki fell in the range of 500 to 1000 nM.

Regarding `COc1ccc2[nH]c(-c3cccc(N4CCCN(C5CCN(C(C)C)CC5)CC4)n3)cc2c1` [Example 105, 5-Methoxy-2-(6-{4-[1-(propan-2-yl)piperidin-4-yl]-1,4-diazepan-1-yl}pyridine-2-yl)-1H-indole], the Ki fell in the range of 500 to 1000 nM.

With `CC(C)N1CCC(N2CCCN(c3cccc(-c4nc5cnccc5[nH]4)n3)CC2)CC1` [Example 106, 1-(6-{3H-Imidazo[4,5-c]pyridin-2-yl}pyridin-2-yl)-4-[1-(propan-2-yl)piperidin-4-yl]-1,4-diazepane], the Ki was < 20 nM.

In the case of `Cc1cnc(-c2cccc(N3CCCN(C4CCN(C(C)C)CC4)CC3)n2)[nH]1` [Example 107, 1-[6-(4-Methyl-1H-imidazol-2-yl)pyridine-2-yl]-4-[1-(propan-2-yl)piperidin-4-yl]-1,4-diazepane], the Ki lay in the range of 20 to 100 nM.

`CCc1cnc(-c2cccc(N3CCCN(C4CCN(C(C)C)CC4)CC3)n2)[nH]1` [Example 108, 1-[6-(4-Ethyl-1H-imidazol-2-yl)pyridine-2-yl]-4-[1-(propan-2-yl)piperidin-4-yl]-1,4-diazepane]: the Ki is < 20 nM.

Regarding `CCCc1cnc(-c2cccc(N3CCCN(C4CCN(C(C)C)CC4)CC3)n2)[nH]1` [Example 109, 1-[1-(Propan-2-yl)piperidin-4-yl]-4-[6-(4-propyl-1H-imidazol-2-yl)pyridine-2-yl]-1,4-diazepane], the Ki was 20 to 100 nM.

In the case of `CC(C)c1cnc(-c2cccc(N3CCCN(C4CCN(C(C)C)CC4)CC3)n2)[nH]1` [Example 110, 1-{6-[4-(Propan-2-yl)-1H-imidazol-2-yl]pyridine-2-yl}-4-[1-(propan-2-yl)piperidin-4-yl]-1,4-diazepane], the Ki lay within 20 to 100 nM.

For `CC(C)N1CCC(N2CCCN(c3cccc(-c4ncc(C5CC5)[nH]4)n3)CC2)CC1` [Example 111, 1-[6-(4-Cyclopropyl-1H-imidazol-2-yl)pyridine-2-yl]-4-[1-(propan-2-yl)piperidin-4-yl]-1,4-diazepane], the Ki was < 20 nM.

As for `CC(C)N1CCC(N2CCCN(c3cccc(-c4ncc(C(F)(F)F)[nH]4)n3)CC2)CC1` [Example 112, 1-[1-(Propan-2-yl)piperidin-4-yl]-4-{6-[4-(trifluoromethyl)-1H-imidazol-2-yl]pyridine-2-yl}-1,4-diazepane], the Ki lay in the range of 500 to 1000 nM.

On to `CC(C)N1CCC(N2CCCN(c3cccc(-c4ncc(C(C)(C)C)[nH]4)n3)CC2)CC1` [Example 113, 1-[6-(4-tert-Butyl-1H-imidazol-2-yl)pyridine-2-yl]-4-[1-(propan-2-yl)piperidin-4-yl]-1,4-diazepane], for which the Ki was in the range of 100 to 500 nM.

As to `CC(C)N1CCC(N2CCCN(c3cccc(-c4ncc(-c5ccccc5)[nH]4)n3)CC2)CC1` [Example 114, 1-[6-(4-Phenyl-1H-imidazol-2-yl)pyridine-2-yl]-4-[1-(propan-2-yl)piperidin-4-yl]-1,4-diazepane], the Ki lay within 100 to 500 nM.

On to `CCc1cnc(-c2cccc(N3CCCN(C4CCN([C@@H](C)C(F)(F)F)CC4)CC3)n2)[nH]1` [Example 115, 1-[6-(4-Ethyl-1H-imidazol-2-yl)pyridine-2-yl]-4-{1-[(2S)-1,1,1-trifluoropropan-2-yl]piperidin-4-yl}-1,4-diazepane], for which the Ki was 100 to 500 nM.

As to `CCc1cnc(-c2cccc(N3CCCN(C4CCN([C@H](C)CC)CC4)CC3)n2)[nH]1` [Example 116, 1-{1-[(2R)-Butan-2-yl]piperidin-4-yl}-4-[6-(4-ethyl-1H-imidazol-2-yl)pyridine-2-yl]-1,4-diazepane], the Ki was < 20 nM.

For the compound `CC(C)(C)c1cnc(-c2cccc(N3CCCN(C4CCN(C(C)(C)C)CC4)CC3)n2)[nH]1` [Example 117, 1-[6-(4-tert-Butyl-1H-imidazol-2-yl)pyridine-2-yl]-4-(1-tert-butylpiperidin-4-yl)-1,4-diazepane], the Ki lay within 100 to 500 nM.

`Cc1nc(-c2cccc(N3CCCN(C4CCN(C(C)C)CC4)CC3)n2)[nH]c1C` [Example 118, 1-[6-(4,5-Dimethyl-1H-imidazol-2-yl)pyridine-2-yl]-4-[1-(propan-2-yl)piperidin-4-yl]-1,4-diazepane]: the Ki was 20 to 100 nM.

Take `CCc1[nH]c(-c2cccc(N3CCCN(C4CCN(C(C)C)CC4)CC3)n2)nc1C` [Example 119, 1-[6-(5-Ethyl-4-methyl-1H-imidazol-2-yl)pyridine-2-yl]-4-[1-(propan-2-yl)piperidin-4-yl]-1,4-diazepane]: the Ki was < 20 nM.

With `CCc1nc(-c2cccc(N3CCCN(C4CCN(C(C)C)CC4)CC3)n2)[nH]c1CC` [Example 120, 1-[6-(4,5-Diethyl-1H-imidazol-2-yl)pyridine-2-yl]-4-[1-(propan-2-yl)piperidin-4-yl]-1,4-diazepane], the Ki lay in the range of 20 to 100 nM.

On to `Cc1nc(-c2cccc(N3CCCN(C4CCN(C(C)C)CC4)CC3)n2)[nH]c1C1CC1` [Example 121, 1-[6-(4-Cyclopropyl-5-methyl-1H-imidazol-2-yl)pyridine-2-yl]-4-[1-(propan-2-yl)piperidin-4-yl]-1,4-diazepane], for which the Ki is < 20 nM.

Take `CCc1nc(-c2cccc(N3CCCN(C4CCN(C(C)C)CC4)CC3)n2)[nH]c1C1CC1` [Example 122, 1-[6-(4-Cyclopropyl-5-ethyl-1H-imidazol-2-yl)pyridine-2-yl]-4-[1-(propan-2-yl)piperidin-4-yl]-1,4-diazepane]: the Ki was < 20 nM.

Consider `CCCc1[nH]c(-c2cccc(N3CCCN(C4CCN(C(C)C)CC4)CC3)n2)nc1C` [Example 123, 1-[6-(5-Methyl-4-propyl-1H-imidazol-2-yl)pyridine-2-yl]-4-[1-(propan-2-yl)piperidin-4-yl]-1,4-diazepane], for which the Ki was < 20 nM.

As for `CCc1cn(C)c(-c2cccc(N3CCCN(C4CCN(C(C)C)CC4)CC3)n2)n1` [Example 124, 1-[6-(4-Ethyl-1-methyl-1H-imidazol-2-yl)pyridine-2-yl]-4-[1-(propan-2-yl)piperidin-4-yl]-1,4-diazepane], the Ki lay in the range of 20 to 100 nM.

Regarding `Cc1ccc(N2CCCN(C3CCN(C(C)C)CC3)CC2)nc1C(=O)NCC1CC1` [Example 125, N-(Cyclopropylmethyl)-3-methyl-6-{4-[1-(propan-2-yl)piperidin-4-yl]-1,4-diazepan-1-yl}pyridine-2-carboxamide], the Ki lay in the range of 100 to 500 nM.

With `c1ccc2c(c1)CCC2N1CCC(N2CCCN(c3nccs3)CC2)CC1` (stereo not shown) [Example 126, 1-[1-(2,3-Dihydro-1H-inden-1-yl)piperidin-4-yl]-4-(1,3-thiazol-2-yl)-1,4-diazepane], the Ki was in the range of 500 to 1000 nM.

Regarding `COCC(C)N1CCC(N2CCCN(c3cccc(C(=O)NCC4CC4)n3)CC2)CC1` (stereo not shown) [Example 127, N-(Cyclopropylmethyl)-6-{4-[1-(1-methoxypropan-2-yl)piperidin-4-yl]-1,4-diazepan-1-yl}pyridine-2-carboxamide], the Ki was 20 to 100 nM.

With `O=C(NCC1CC1)c1cccc(N2CCCN(C3CCN(C4CCOC4)CC3)CC2)n1` (stereo not shown) [Example 128, N-(Cyclopropylmethyl)-6-{4-[1-(oxolan-3-yl)piperidin-4-yl]-1,4-diazepan-1-yl}pyridine-2-carboxamide], the Ki lay in the range of 100 to 500 nM.

In the case of `O=C(NCC1CC1)c1cccc(N2CCCN(C3CCN(Cc4ccccc4)CC3)CC2)n1` [Example 129, 6-[4-(1-Benzylpiperidin-4-yl)-1,4-diazepan-1-yl]-N-(cyclopropylmethyl)pyridine-2-carboxamide], the Ki lay within 500 to 1000 nM.

Turning to `O=C(NCC1CC1)c1cccc(N2CCCN(C3CCN(Cc4ccc(F)cc4)CC3)CC2)n1` [Example 130, N-(Cyclopropylmethyl)-6-(4-{1-[(4-fluorophenyl)methyl]piperidin-4-yl}-1,4-diazepan-1-yl)pyridine-2-carboxamide], the Ki was in the range of 100 to 500 nM.

As to `Cc1ccccc1CN1CCC(N2CCCN(c3cccc(C(=O)NCC4CC4)n3)CC2)CC1` [Example 131, N-(Cyclopropylmethyl)-6-(4-{1-[(2-methylphenyl)methyl]piperidin-4-yl}-1,4-diazepan-1-yl)pyridine-2-carboxamide], the Ki was in the range of 100 to 500 nM.

`O=C(NCC1CC1)c1cccc(N2CCCN(C3CCN(Cc4ccccc4Cl)CC3)CC2)n1` [Example 132, 6-(4-{1-[(2-Chlorophenyl)methyl]piperidin-4-yl}-1,4-diazepan-1-yl)-N-(cyclopropylmethyl)pyridine-2-carboxamide]: the Ki fell in the range of 20 to 100 nM.

For the compound `COc1ccccc1CN1CCC(N2CCCN(c3cccc(C(=O)NCC4CC4)n3)CC2)CC1` [Example 133, N-(Cyclopropylmethyl)-6-(4-{1-[(2-methoxyphenyl)methyl]piperidin-4-yl}-1,4-diazepan-1-yl)pyridine-2-carboxamide], the Ki fell in the range of 20 to 100 nM.

For the compound `O=C(NCC1CC1)c1cccc(N2CCCN(C3CCN(Cc4cccc(Cl)c4)CC3)CC2)n1` [Example 134, 6-(4-{1-[(3-Chlorophenyl)methyl]piperidin-4-yl}-1,4-diazepan-1-yl)-N-(cyclopropylmethyl)pyridine-2-carboxamide], the Ki lay within 100 to 500 nM.

In the case of `O=C(NCC1CC1)c1cccc(N2CCCN(C3CCN(Cc4ccc(F)cc4Cl)CC3)CC2)n1` [Example 135], the Ki is < 20 nM.

In the case of `NC(=O)c1cccc(N2CCCN(C3CCN(Cc4ccccc4Cl)CC3)CC2)n1` [Example 136, 6-(4-{1-[(2-Chlorophenyl)methyl]piperidin-4-yl}-1,4-diazpan-1-yl)pyridine-2-carboxamide], the Ki is 100 to 500 nM.

Consider `CCNC(=O)c1cccc(N2CCCN(C3CCN(Cc4ccccc4Cl)CC3)CC2)n1` [Example 137, 6-(4-{1-[(2-Chlorophenyl)methyl]piperidin-4-yl}-1,4-diazepan-1-yl)-N-ethylpyridine-2-carboxamide], for which the Ki is 20 to 100 nM.
